Data as given in PubChem BioAssay (NCI).
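How tested: cells in 96-well plates exposed to compound for 48 hours at five concentrations. Abbreviation: GI50, concentration required for 50% inhibition of growth. The concentration for full growth arrest is given as TGI.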

Assays:
Assay in all cases: NCI-60 cell line screen, 48 h
[1] = test system: A498 renal
[2] = test system: DMS 114 small cell lung
[3] = test system: EKVX NSCLC
[4] = test system: HCC-2998 colon
[5] = test system: HCT-15 colon
[6] = test system: NCI-H23 lung
[7] = test system: SK-MEL-5 melanoma
[8] = test system: SNB-78 CNS
[9] = test system: U251 CNS
[10] = test system: RPMI-8226 leukemia
[11] = test system: MCF7 breast

Compound | TGI [1] [µM] | TGI [2] [µM] | TGI [3] [µM] | TGI [4] [µM] | TGI [5] [µM] | TGI [6] [µM] | TGI [7] [µM] | TGI [8] [µM] | TGI [9] [µM] | TGI [10] [µM] | TGI [11] [µM] | GI50 [1] [µM] | GI50 [3] [µM] | GI50 [4] [µM] | GI50 [5] [µM] | GI50 [11] [µM] | GI50 [6] [µM] | GI50 [10] [µM] | GI50 [7] [µM] | GI50 [9] [µM]
[N-]=[N+]=CC(=O)C1(C(=O)C=[N+]=[N-])CC1 | > 100 | > 100 | > 100 | > 100 | > 100 | > 100 | > 100 | > 100 | > 100 |  |  |  |  |  |  |  |  |  |  | 
CCCCn1c(-c2ccccc2)cs/c1=N\N=C1C=C(C(C)(C)C)C(=O)C(C(C)(C)C)=C1 | > 100 | > 100 | > 100 | > 100 | > 100 | > 100 |  |  | > 100 |  |  |  |  |  |  |  |  |  |  | 
O=c1oc2cc(O)ccc2c2[nH]c3cc(O)ccc3c12 | > 100 | 53.8 | 90.1 | 57 | 81.8 | 51.5 |  | > 100 | > 100 | > 100 |  |  |  |  |  |  |  |  |  | 
CC1CC(=O)Nc2ccc(Cl)cc2N1C(=O)CN1CCC(CCCCN(C)C)CC1 (stereo not given) | > 100 | > 100 |  | > 100 | > 100 | > 100 | > 100 |  | > 100 | > 100 |  |  |  |  |  |  |  |  |  | 
Oc1ccc(-c2c3ccccc3c(-c3ccc(O)cc3)c3ccccc23)cc1 | > 100 | > 100 | > 100 | > 100 | > 100 | > 100 | > 100 | > 100 | > 100 | > 100 |  |  |  |  |  |  |  |  |  | 
COC1(OC)CC2C(=O)N(Cc3ccccc3)C1C(S(=O)(=O)c1ccccc1)C2C(C)S(=O)(=O)c1ccccc1 (stereo not given) |  | > 100 | > 100 | > 100 | > 100 | > 100 | > 100 | > 100 | > 100 | > 100 |  |  |  |  |  |  |  |  |  | 
Cc1ccc2nc(N)[nH]c(=O)c2c1Sc1ccncc1 | > 100 | > 100 | > 100 | > 100 | > 100 | > 100 | > 100 | > 100 | > 100 | > 100 |  |  |  |  |  |  |  |  |  | 
CCOC(=O)/C=C/n1c2ccccc2c(=O)c2cc(OC)ccc21 | > 100 | > 100 | > 100 | > 100 | > 100 | > 100 | > 100 |  | > 100 |  |  |  |  |  |  |  |  |  |  | 
CCN(CC)CC1CCCCN1CC(=O)N1c2cc(Cl)ccc2NC(=O)CC1C (stereo not given) | > 100 | > 100 | > 100 | > 100 |  | > 100 | > 100 | > 100 | > 100 | > 100 |  |  |  |  |  |  |  |  |  | 
CC1(CO)C(O)CCC2(C)C1CCC1CC3CC12CCC3(O)CO (stereo not given) | 99 | > 100 | > 100 | > 100 | > 100 | > 100 | > 100 | > 100 | > 100 | > 100 | > 100 |  |  |  |  |  |  |  |  | 
c1ccc2c(c1)nnn2CNc1ccc(N2CCCCC2)cc1 | > 100 | > 100 | > 100 | > 100 | > 100 | > 100 |  | > 100 | > 100 | > 100 |  |  |  |  |  |  |  |  |  | 
CC(=O)Nc1ccc(-c2nnc(SCC(=O)Nc3cccc(C)c3)o2)cc1 |  | 6.94 |  |  | 21.6 | 20.4 | 23.1 | 31.1 | 26.3 | 67 |  |  |  |  |  |  |  |  |  | 
CCCNC1=C2C[C@@H](C)C[C@@H](OC)[C@@H](OC(=O)CCCN)[C@H](C)/C=C(\C)[C@@H](OC(N)=O)[C@H](OC)/C=C\C=C(/C)C(=O)NC(=CC1=O)C2=O | 37.1 |  | 37.5 | 38.1 | 46.8 | 29.4 | 24.5 |  | > 35 | 29.1 | 31.4 |  |  |  |  |  |  |  |  | 
COC(=O)C1OC(O[C@H]2CC[C@]3(C)[C@H]4CC=C5[C@@H]6CC(C)(C)CC[C@]6(C(=O)OC)CC[C@@]5(C)[C@]4(C)CC[C@H]3C2(C)C)C(O)C(O)C1O (stereo not given in full) | 34.3 |  | 29 | 20.3 | 27.1 | 32.4 | 32.2 |  | 25.1 | 51.7 | 29.2 |  |  |  |  |  |  |  |  | 
C1=N[C@]23C(=N[C@H](N=C2NCc2ccco2)[C@]24N=CNC2=N[C@H]3N=C4NCc2ccco2)N1 | > 100 |  | > 100 | > 100 | > 100 | > 100 | > 100 |  | > 100 | > 100 | > 100 | 5.8 | 89.5 | > 100 | > 100 | > 100 | > 100 | > 100 | > 100 | > 100
O=[N+]([O-])c1cc(Br)cc2cc(Cl)cnc12 | > 100 |  | > 100 | > 100 | > 100 | > 100 | > 100 |  | > 100 | > 100 | > 100 |  |  |  |  |  |  |  |  | 
Cc1ccc(S(=O)(=O)NC(=O)C2S(=O)(=O)OCCOS2(=O)=O)cc1 |  |  | > 100 | > 100 |  | > 100 | > 100 | > 100 |  | > 100 |  |  |  |  |  |  |  |  |  | 
O=C(Nc1ccccc1[N+](=O)[O-])/C(=N/Nc1cccc(Cl)c1)c1c(O)c2ccccc2oc1=O | > 100 | 53.8 | > 100 | > 100 | > 100 | > 100 | > 100 |  |  |  |  |  |  |  |  |  |  |  |  | 
CC(C)C[S+]1C2=C([O-])CC(C)(C)CC2=Nc2ccccc21 (stereo not given) | > 100 |  | > 100 | > 100 | > 100 | > 100 | > 100 |  | > 100 | > 100 | > 100 |  |  |  |  |  |  |  |  | 
CCOC(=O)/C(Br)=C1\OC(=O)c2ccccc2-c2ccccc21 |  | 61.7 | > 100 | > 100 | > 100 | > 100 | > 100 | > 100 | > 100 | > 100 |  |  |  |  |  |  |  |  |  | 
Cc1cc(N(CCC#N)S(=O)(=O)c2ccccc2)ccc1C=Nc1cccc(C(=O)O)c1 |  | > 100 | > 100 | > 100 | > 100 | > 100 | > 100 | > 100 | > 100 | > 100 |  |  |  |  |  |  |  |  |  | 
CC(=O)N1C(C(=O)NN2CCOCC2)CSC1c1ccccc1 (stereo not given) | > 100 |  | > 100 | > 100 | > 100 | > 100 | > 100 |  | > 100 | > 100 | > 100 |  |  |  |  |  |  |  |  | 
NC(Cc1ccc(O)cn1)C(=O)NC(C(=O)O)c1ccccc1 (stereo not given) | > 100 |  | > 100 | > 100 | > 100 | > 100 | > 100 |  | > 100 | > 100 | > 100 |  |  |  |  |  |  |  |  | 
CC[C@H](C)[C@H](NC(=O)N(CCC#N)CCN(CCN(C(=O)N[C@@H](Cc1ccccc1)C(=O)OC)c1ccccc1)C(=O)N[C@H](C(=O)OC)C(C)C)C(=O)OC | 36.8 |  | 69.2 | 39.5 | 51.6 | 40.1 | 38.4 |  | 36.1 | 29.1 | 74.6 |  |  |  |  |  |  |  |  | 
O=C1CC(c2ccc(Cl)cc2)C2(C(=O)NC(=S)NC2=O)C(c2ccc(Cl)cc2)C1 (stereo not given) | 31.4 |  | 91.7 | 43.3 | 52.8 | 39 | 33.1 |  | 79.7 | 51.2 | 32.1 |  |  |  |  |  |  |  |  | 
CC(C)OP(=O)(OC(C)C)C(=NCCO)NNc1ccc([N+](=O)[O-])cc1 | > 100 | > 100 | > 100 | > 100 | > 100 | > 100 | > 100 | > 100 | > 100 | > 100 |  |  |  |  |  |  |  |  |  | 
CC(=O)O[C@@H]1[C@H](OC2CCCCC2(c2ccccc2)c2ccccc2)O[N+]([O-])=CC12CCCCC2 (stereo not given in full) | 29.9 |  | 33.7 | 32.6 | 30.7 | 22.2 | 28.2 |  | 30.7 | > 100 | 33.9 |  |  |  |  |  |  |  |  | 
C[C@@H]1C[C@H]2OC(=O)[C@@]3(C)CCC[C@@](C)([C@@H]23)[C@@]1(O)CCc1ccoc1 | > 100 |  | > 100 | > 100 | > 100 | > 100 | > 100 |  | > 100 | > 100 | > 100 |  |  |  |  |  |  |  |  | 
